Experimental data as given in PubChem BioAssay AID2060908 (Molecular Pharmacology Branch, DTP, NCI, 2025).
“And” between values parts separate entries of the source, which are not always exact repeats. Equal entries are not always repeated. Values belong to the molecule of their own block, whether it stands above or below them.

Test system: 186277-243-T-J2-PDC complex spheroids, viability
Assay: Anticancer human tumor 186277-243-T-J2-PDC patient-derived colon adenocarcinoma cell line growth inhibition [RAS]
Conditions: for viability, T/C: stronger effect = lower value; for IC50: curve of first compound
Summary of the method: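 Agents were tested in combination matrices in half-log decrements from a top concentration at or near clinical Cmax (10 microM if undetermined). Targets were multi-cell spheroids of tumour lines plus HUVEC and MSC stromal cells.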

[1] = second compound 0.0316 µM, first compound 0.0316 µM
[2] = second compound 0.0316 µM, first compound 0.1 µM
[3] = second compound 0.0316 µM, first compound 0.316 µM
[4] = second compound 0.0316 µM, first compound 1 µM
[5] = second compound 0.0316 µM, first compound 3.16 µM
[6] = second compound 0.0316 µM, first compound 10 µM
[7] = second compound 0.1 µM, first compound 0.0316 µM
[8] = second compound 0.1 µM, first compound 0.1 µM
[9] = second compound 0.1 µM, first compound 0.316 µM
[10] = second compound 0.1 µM, first compound 1 µM
[11] = second compound 0.1 µM, first compound 3.16 µM
[12] = second compound 0.1 µM, first compound 10 µM
[13] = second compound 0.316 µM, first compound 0.0316 µM
[14] = second compound 0.316 µM, first compound 0.1 µM
[15] = second compound 0.316 µM, first compound 0.316 µM
[16] = second compound 0.316 µM, first compound 1 µM
[17] = second compound 0.316 µM, first compound 3.16 µM
[18] = second compound 0.316 µM, first compound 10 µM
[19] = second compound 1 µM, first compound 0.0316 µM
[20] = second compound 1 µM, first compound 0.1 µM
[21] = second compound 1 µM, first compound 0.316 µM
[22] = second compound 1 µM, first compound 1 µM
[23] = second compound 1 µM, first compound 3.16 µM
[24] = second compound 1 µM, first compound 10 µM
[25] = second compound 3.16 µM, first compound 0.0316 µM
[26] = second compound 3.16 µM, first compound 0.1 µM
[27] = second compound 3.16 µM, first compound 0.316 µM
[28] = second compound 3.16 µM, first compound 1 µM
[29] = second compound 3.16 µM, first compound 3.16 µM
[30] = second compound 3.16 µM, first compound 10 µM
[31] = second compound 10 µM, first compound 0.0316 µM
[32] = second compound 10 µM, first compound 0.1 µM
[33] = second compound 10 µM, first compound 0.316 µM
[34] = second compound 10 µM, first compound 1 µM
[35] = second compound 10 µM, first compound 3.16 µM
[36] = second compound 10 µM, first compound 10 µM
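Note: spheroids exposed to compounds for 7 days before viability read.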

Structure (SMILES): CC(Nc1ccc2c(c1)OCCn1cc(N3C(=O)OCC3C(F)F)nc1-2)C(N)=O (stereo unspecified)
viability, T/C (compound 0.0316 µM): 102% (2×) and 76.1% and 98.5%
viability, T/C (compound 0.1 µM): 91.8% [middle of 4 runs]
viability, T/C (compound 0.316 µM): 69.5% [middle of 4 runs]
viability, T/C (compound 1 µM): 51.2% [middle of 4 runs]
viability, T/C (compound 10 µM): 34.3% [middle of 4 runs]

IC50 (second compound 0.000949 µM): 616 nM
IC50 (second compound 0.003 µM): 128 nM
IC50 (second compound 0.00949 µM): < 31.6 nM
IC50 (second compound 0.03 µM): < 31.6 nM
IC50 (second compound 0.0949 µM): < 31.6 nM
IC50 (second compound 0.3 µM): < 31.6 nM
Structure (SMILES): Cc1nc(N2CCC3(CC2)COC(C)C3N)c(CO)nc1Sc1ccnc(N)c1Cl (stereo unspecified) + CCn1c(-c2cc(N3CCN(C)CC3)cnc2C(C)OC)c2c3cc(ccc31)-c1csc(n1)CC(NC(=O)C1CC1C)C(=O)N1CCCC(N1)C(=O)OCC(C)(C)C2
viability, T/C (second compound 0.000949 µM, first compound 0.0316 µM): 94.6%
viability, T/C (second compound 0.000949 µM, first compound 0.1 µM): 110%
viability, T/C (second compound 0.000949 µM, first compound 0.316 µM): 76.3%
viability, T/C (second compound 0.000949 µM, first compound 1 µM): 30.1%
viability, T/C (second compound 0.000949 µM, first compound 3.16 µM): 9.66%
viability, T/C (second compound 0.000949 µM, first compound 10 µM): 5.87%
viability, T/C (second compound 0.003 µM, first compound 0.0316 µM): 91.2%
viability, T/C (second compound 0.003 µM, first compound 0.1 µM): 58.7%
viability, T/C (second compound 0.003 µM, first compound 0.316 µM): 18.3%
viability, T/C (second compound 0.003 µM, first compound 1 µM): 8.06%
viability, T/C (second compound 0.003 µM, first compound 3.16 µM): 4.43%
viability, T/C (second compound 0.003 µM, first compound 10 µM): 2.87%
viability, T/C (second compound 0.00949 µM, first compound 0.0316 µM): 27.1%
viability, T/C (second compound 0.00949 µM, first compound 0.1 µM): 13.6%
viability, T/C (second compound 0.00949 µM, first compound 0.316 µM): 6.12%
viability, T/C (second compound 0.00949 µM, first compound 1 µM): 4.02%
viability, T/C (second compound 0.00949 µM, first compound 3.16 µM): 3.42%
viability, T/C (second compound 0.00949 µM, first compound 10 µM): 2.67%
viability, T/C (second compound 0.03 µM, first compound 0.0316 µM): 9.41%
viability, T/C (second compound 0.03 µM, first compound 0.1 µM): 7.94%
viability, T/C (second compound 0.03 µM, first compound 0.316 µM): 4.32%
viability, T/C (second compound 0.03 µM, first compound 1 µM): 3.62%
viability, T/C (second compound 0.03 µM, first compound 3.16 µM): 2.89%
viability, T/C (second compound 0.03 µM, first compound 10 µM): 2.28%
viability, T/C (second compound 0.0949 µM, first compound 0.0316 µM): 5.71%
viability, T/C (second compound 0.0949 µM, first compound 0.1 µM): 4.9%
viability, T/C (second compound 0.0949 µM, first compound 0.316 µM): 3.65%
viability, T/C (second compound 0.0949 µM, first compound 1 µM): 3.26%
viability, T/C (second compound 0.0949 µM, first compound 3.16 µM): 2.76%
viability, T/C (second compound 0.0949 µM, first compound 10 µM): 1.95%
viability, T/C (second compound 0.3 µM, first compound 0.0316 µM): 4.72%
viability, T/C (second compound 0.3 µM, first compound 0.1 µM): 4.35%
viability, T/C (second compound 0.3 µM, first compound 0.316 µM): 3.45%
viability, T/C (second compound 0.3 µM, first compound 1 µM): 3.1%
viability, T/C (second compound 0.3 µM, first compound 3.16 µM): 2.4%
viability, T/C (second compound 0.3 µM, first compound 10 µM): 1.92%

IC50 (second compound 0.0316 µM): 9760 nM
IC50 (second compound 0.1 µM): 4170 nM
IC50 (second compound 0.316 µM): < 31.6 nM
IC50 (second compound 1 µM): < 31.6 nM
IC50 (second compound 3.16 µM): < 31.6 nM
IC50 (second compound 10 µM): < 31.6 nM
Structure (SMILES): C[C@@H](NC(=O)c1ncnc(N)c1Cl)c1ncc(C(=O)Nc2cc(C(F)(F)F)c(Cl)cn2)s1 + C#Cc1c(F)ccc2cc(O)cc(-c3ncc4c(N5CC6CCC(C5)N6)nc(OCC56CCCN5CC(F)C6)nc4c3F)c12
viability, T/C [1]: 104%
viability, T/C [2]: 98.5%
viability, T/C [3]: 90.6%
viability, T/C [4]: 91.7%
viability, T/C [5]: 76.1%
viability, T/C [6]: 48.8%
viability, T/C [7]: 77.2%
viability, T/C [8]: 69.5%
viability, T/C [9]: 62.1%
viability, T/C [10]: 61.3%
viability, T/C [11]: 60.8%
viability, T/C [12]: 26.7%
viability, T/C [13]: 36.3%
viability, T/C [14]: 49.8%
viability, T/C [15]: 38.5%
viability, T/C [16]: 36%
viability, T/C [17]: 23.7%
viability, T/C [18]: 14.4%
viability, T/C [19]: 20.9%
viability, T/C [20]: 23.9%
viability, T/C [21]: 22.7%
viability, T/C [22]: 22.3%
viability, T/C [23]: 18.8%
viability, T/C [24]: 11.1%
viability, T/C [25]: 15.4%
viability, T/C [26]: 17.6%
viability, T/C [27]: 15.1%
viability, T/C [28]: 15.4%
viability, T/C [29]: 10.9%
viability, T/C [30]: 8.51%
viability, T/C [31]: 9.89%
viability, T/C [32]: 10.8%
viability, T/C [33]: 14%
viability, T/C [34]: 12.8%
viability, T/C [35]: 8%
viability, T/C [36]: 8.5%

IC50 (second compound 0.0316 µM): < 31.6 nM
IC50 (second compound 0.1 µM): < 31.6 nM
IC50 (second compound 0.316 µM): < 31.6 nM
IC50 (second compound 1 µM): < 31.6 nM
IC50 (second compound 3.16 µM): < 31.6 nM
IC50 (second compound 10 µM): < 31.6 nM
Structure (SMILES): CC(=O)OC12COC1CC(O)C1(C)C(=O)C(O)C3=C(C)C(OC(=O)C(O)C(NC(=O)OC(C)(C)C)c4ccccc4)CC(O)(C(OC(=O)c4ccccc4)C21)C3(C)C (stereo unspecified) + C#Cc1c(F)ccc2cc(O)cc(-c3ncc4c(N5CC6CCC(C5)N6)nc(OCC56CCCN5CC(F)C6)nc4c3F)c12
viability, T/C [1]: 5.3%
viability, T/C [2]: 5.14%
viability, T/C [3]: 5.59%
viability, T/C [4]: 4.15%
viability, T/C [5]: 5.04%
viability, T/C [6]: 4.9%
viability, T/C [7]: 6.01%
viability, T/C [8]: 5.73%
viability, T/C [9]: 4.94%
viability, T/C [10]: 4.03%
viability, T/C [11]: 5.26%
viability, T/C [12]: 3.53%
viability, T/C [13]: 5.77%
viability, T/C [14]: 4.92%
viability, T/C [15]: 4.48%
viability, T/C [16]: 4.42%
viability, T/C [17]: 4.75%
viability, T/C [18]: 5%
viability, T/C [19]: 4.79%
viability, T/C [20]: 5.04%
viability, T/C [21]: 4.17%
viability, T/C [22]: 4.69%
viability, T/C [23]: 5.21%
viability, T/C [24]: 4.15%
viability, T/C [25]: 3.84%
viability, T/C [26]: 4.36%
viability, T/C [27]: 4.81%
viability, T/C [28]: 3.94%
viability, T/C [29]: 4.59%
viability, T/C [30]: 3.53%
viability, T/C [31]: 4.68%
viability, T/C [32]: 3.75%
viability, T/C [33]: 4.17%
viability, T/C [34]: 4.45%
viability, T/C [35]: 4.43%
viability, T/C [36]: 3.61%
